According to patent US8198285B2, “Pyrazine derivatives” (Astrazeneca AB, priority 2010, dated 2012):
Where a name gives a salt, the structure may show the parent alone.

System: β-catenin accumulation in the nucleus of murine C3H/10T1/2 cells
Experiment: Cellular beta-catenin stabilisation assay, Test (b)
Type: cell-based
Conditions: Mus musculus, 24 hours, read-out: EC50 versus cellular β-catenin accumulation in the nucleus of murine C3H/10T1/2 cells
Experimental: This assay uses an imaging based approach to measure the ability of test compounds to promote Beta-catenin stabilisation in the nucleus of C3H10T1/2 cells. Beta-catenin stabilisation is an indicator of GSK3β inhibition.
A C3H10T1/2 mouse clone 8 fibroblast cell line (American Type Culture Collection (ATCC, USA; catalogue number CRL 226) was routinely maintained at 37° C. with 5% CO2 in Basal Medium Eagle (BME, Invitrogen; Paisley, UK; catalogue number 41010) containing 10% (v/v) foetal bovine serum (FBS, Invitrogen, Paisley; UK; catalogue number 10270) and 2 mM L-glutamine (Invitrogen, Paisley, UK; catalogue number 25030024). For the assay, the cells were detached from the culture flask with ‘Accutase’ (Innovative Cell Technologies Inc., San Diego, USA; catalogue number AT104) using standard tissue culture methods and re-suspended in assay media comprising of BME containing 5% (v/v) FBS and 2 mM L-glutamine to give 55,555 cells per ml. Then, 90 μl of this solution was seeded into each well of a clear-bottom 96 well tissue culture plate (Perkin Elmer Viewplate; catalogue number 6005182) using a Multidrop Combi Dispenser (Thermo Fisher Scientific, Loughborough, UK) to give 5,000 cells per well. Plates were incubated overnight at 37° C. with 5% CO2 to allow the cells to adhere to the wells. Test compounds were prepared as 10 mM stock solutions in dimethylsulphoxide (DMSO) (Sigma-Aldrich; Poole, UK, catalogue number 49442-9) and serially diluted in DMSO. A Multidrop Combi was used to dispense 245 μl of pre-warmed assay media into a 96 well plate (Thermo Fisher Scientific, Loughborough, UK; catalogue number 50823925) before 5 μl of serially diluted compound was added to this intermediate plate. After mixing, 10 μl of each compound concentration was added to the cell plates. The total dilution factor from DMSO stock was 500 times. Control cells received either DMSO (0.2% v/v final concentration) or 10 μM positive control compound. The cells were incubated for 24 hours at 37° C. with 5% CO2.
After compound treatment the cells were fixed by the addition of 100 μl of 8% w/v paraformaldehyde (Sigma-Aldrich, Poole, UK; catalogue number P6148), directly into the assay plate wells. The cells were incubated at ambient temperature with fixative for 30 minutes before washing 3 times with 100 μl phosphate-buffered saline (PBS, Sigma-Aldrich; catalogue number D8537). […] The cells were then washed 3 times in 100 μl of PBS before the plates were sealed ready for image capture. Fluorescent images were captured and quantified using the Incell Analyser 3000 (GE Healthcare, USA). […]

In the case of COCCCNCCCc1ccc(-c2cnc(N)c(C(=O)Nc3cccnc3)n2)cc1 [Example 1, 3-Amino-6-(4-{3-[(3-methoxypropyl)amino]propyl}phenyl)-N-pyridin-3-ylpyrazine-2-carboxamide tri-hydrochloride], the EC50 is reported as roughly 242 nM.
